Results reported in patent EP4772497A1, “POLYMORPHS OF NITROGEN-CONTAINING HETEROCYCLIC COMPOUNDS, AND USES THEREOF” (BNH Research Co., Ltd., priority 2023, dated 2025).
In brackets after ≈: the same amount, converted by molar mass.

Assays:
[1] = Competitive equilibrium experiments for crystalline forms A and C (XRPD, DSC); assay type: physicochemical; conditions: forms A and C slurried in acetone, acetonitrile, ethyl acetate, isopropyl acetate, acetone/water (35:65) at 5°C, 25°C, 50°C for 1 week
Procedure: Competitive equilibrium experiments were performed in various solvent systems to determine the relative stability of crystalline forms A and C.
About 15 mg of crystalline form A and 15 mg of crystalline form C were added to 0.2 mL of a saturated solution of each of selected solvents (acetone, acetonitrile, ethyl acetate, isopropyl acetate, and acetone/water (v:v=35:65)) (Table 9). The obtained suspensions were stirred at 5°C, 25°C, and 50°C, respectively, for 1 week. The solid portion (wet cake) was isolated by centrifugal filtration and analyzed by XRPD and DSC, and the results are shown in Figs. 7a to 7f.

[2] = Dry grinding simulation experiment (XRPD); assay type: physicochemical; conditions: manually ground for 1, 3, and 5 minutes, mortar and pestle
Procedure: About 5 mg of crystalline form C was manually ground for 1, 3, and 5 minutes using a mortar and pestle. Potential changes in form and crystallinity were evaluated by XRPD.
The XRPD results of the dry grinding simulation experiments are shown in Fig. 11, where GSE1, GSE2, and GSE3 represent experiment IDs for grinding for 1 minute, 3 minutes, and 5 minutes, respectively.

[3] = Approximate solubility of crystalline form C in dissolution media by visual observation; assay type: physicochemical; conditions: thermodynamic from solid, 37°C per table caption (method: 25°C)
Procedure: About 4 mg of crystalline form C was weighed into a 4 mL or 8 mL glass vial, and 4 to 9 mL of dissolution medium was added to dissolve the drug substance at 25°C. The approximate solubility was determined by visual observation.
The solvents and solubility results are shown in Table 11 (solubility of crystalline form C at 37°C).

[4] = test system: C57BL/6J mice; assay: TC synaptic potency and GABA/AMPA ratio in the barrel cortex after oral administration; assay type: in vivo; conditions: 8-week-old C57BL/6J mice, 1 mg/kg orally, barrel cortex (layer 4)
Procedure: Following oral administration of crystalline form C, the efficacy of the compound was evaluated by measuring the potency and the GABA/AMPA ratio in the barrel cortex.
Crystalline form C was orally administered at a dose of 1 mg/kg to 8-week-old C57BL/6J mice. For the control group, 200 µL of a mixed solution of DMSO (10):PEG400 (44):saline (55) was orally administered as a vehicle. Experiments were performed on five mice each for the control (vehicle) group and the compound-treated group.

[5] = Hygroscopicity by dynamic vapor sorption (DVS); assay type: physicochemical
Procedure: Instrument model: SMS DVS Advantage Dynamic Vapor Sorption System Test method: A sample (10 to 15 mg) is taken and placed on a DVS sample pan, and measurement is performed. Detailed DVS parameters are as follows. Temperature: 25°C Equilibrium dm/dt = 0.002%/min: (minimum: 60 min, maximum: 240 min) Relative humidity (RH (%)) measurement gradient: 10% Relative Humidity (RH (%)) measurement gradient cycle: 40-0-95-0-40% The following description provides the criteria for determining hygroscopicity: [Table 6]
The moisture adsorption and desorption behavior of crystalline form C was investigated by the DVS test of Experimental Method 5. XRPD was performed to confirm any change in form after the DVS test.

[6] = test system: Aβ plaques; assay: Bielschowsky silver staining of brain sections; assay type: in vivo, mice; conditions: 1 mg/kg orally, cerebral cortex, vs vehicle control
Procedure: To evaluate the efficacy of crystalline form C of the present disclosure in inhibiting amyloid-beta protein accumulation, mouse proteomic profiling array analysis and Bielschowsky silver staining were performed. […]
Bielschowski silver staining (Bielschowski Silver Staining Kit, ab245877, abcam, Cambridge, UK) was performed according to the manufacturer's protocol. 40 µm-thick brain sections of APP/PS1 mice were incubated in a warm 20% silver nitrate solution at 40°C for 15 minutes, followed by four washes with distilled water and three rinses with water for 3 minutes each. The slides were incubated in an ammoniacal silver solution at 40°C for 10 minutes, and then placed in a developer solution (containing 8 drops of 20% formalin, 8 drops of citric acid, and 4 drops of nitric acid in 50 mL H2O) for a few seconds until the tissue sections turned yellow/brown. Subsequently, the slides were placed in aqueous ammonia for 30 seconds. The sections were washed three times with water for 2 minutes each and incubated in a 5% thiosulfate solution for 2 minutes. […]
Statistical analysis was performed using GraphPad Prism 9.5.0 software (San Diego, CA, USA). […] All data are expressed as mean ± SEM.

[7] = Wet granulation simulation experiment (XRPD); assay type: physicochemical; conditions: ground, dried 10 minutes
Procedure: Water or ethanol was added dropwise to about 10 mg of crystalline form C until it was sufficiently wetted. The wet sample was gently ground using a mortar and pestle. After the granulation, the sample was dried under ambient conditions for 10 minutes. Potential changes in form and crystallinity were evaluated by XRPD.
The XRPD results of the wet granulation simulation experiments are shown in Fig. 12, where GNSE1 and GNSE2 represent experiment IDs for water and ethanol, respectively.

Which “relative stability of crystalline forms A and C” value [1] does the source give for `C[C@@H]1CC[C@H](C(=O)O)CN1C(=O)Cc1ccc(F)cc1Cl` [Crystalline form C, (3S,6R)-1-(2-(2-chloro-4-fluorophenyl)acetyl)-6-methylpiperidine-3-carboxylic acid] here?
Its value is “most thermodynamically stable crystalline form below 50 °C”.

What about the “change in form and crystallinity on grinding” value [2] of the same compound?
Its value is “no change in form, but its crystallinity decreased significantly”.

What about the solubility ([3]; aqueous buffer, ES2: pH 4.5 acetate buffer (50mM)) of the same compound?
The solubility was 900 to 1000 µg/mL (≈ 2.87 to 3.19 mM).

And the solubility ([3]; aqueous buffer, ES3: pH 6.8 phosphate buffer (50mM))?
The solubility was 1800 to 2000 µg/mL (≈ 5.74 to 6.37 mM).

What about the solubility ([3]; simulated gastric fluid, ES1: pH 1.2 HCl buffer (0.2N)) of the same compound?
The solubility was 500 to 600 µg/mL (≈ 1.59 to 1.91 mM).

And the solubility ([3]; simulated gastric fluid, ES4: SGF, pH 2.0)?
Its solubility is 400 to 500 µg/mL (≈ 1.27 to 1.59 mM).

And the solubility ([3]; ES5: FaSSIF-v1, pH 6.5)?
Its solubility is 1800 to 2000 µg/mL (≈ 5.74 to 6.37 mM).

What about the solubility ([3]; ES6: FeSSIF-v1, pH 5.0) of the same compound?
Its solubility is 1800 to 2000 µg/mL (≈ 5.74 to 6.37 mM).

And the solubility ([3]; ES7: Water)?
The solubility was 600 to 700 µg/mL (≈ 1.91 to 2.23 mM).

What about the TC synaptic potency [4] of the same compound?
Its TC synaptic potency is “increase TC synaptic potency”.

What about the “balance of excitation/inhibition (GABA/AMPA ratio)” value [4] of the same compound?
Its value is “maintaining the balance of excitation/inhibition”.

And the Classification of hygroscopicity ([5]; DVS, 25°C)?
The Classification of hygroscopicity was “non-hygroscopic”.

And the “Weight change (%) in 1st adsorption” value ([5]; Relative humidity 0% at 25°C)?
Its value is 0%.

And the “Weight change (%) in 1st desorption” value ([5]; Relative humidity 0% at 25°C)?
The value was 0%.

And the “Weight change (%) in 2nd adsorption” value ([5]; Relative humidity 0% at 25°C)?
The value was 0%.

What about the “Weight change (%) in 2nd desorption” value ([5]; Relative humidity 0% at 25°C) of the same compound?
The value was 0%.

And the “Weight change (%) in 1st adsorption” value ([5]; Relative humidity 10% at 25°C)?
Its value is 0%.

What about the “Weight change (%) in 1st desorption” value ([5]; Relative humidity 10% at 25°C) of the same compound?
Its value is 0%.

What about the “Weight change (%) in 2nd adsorption” value ([5]; Relative humidity 10% at 25°C) of the same compound?
The value was 0%.

And the “Weight change (%) in 2nd desorption” value ([5]; Relative humidity 10% at 25°C)?
The value was 0%.

And the “Weight change (%) in 1st adsorption” value ([5]; Relative humidity 20% at 25°C)?
Its value is 0%.

What about the “Weight change (%) in 1st desorption” value ([5]; Relative humidity 20% at 25°C) of the same compound?
The value was 0%.

What about the “Weight change (%) in 2nd adsorption” value ([5]; Relative humidity 20% at 25°C) of the same compound?
The value was 0%.

What about the “Weight change (%) in 2nd desorption” value ([5]; Relative humidity 20% at 25°C) of the same compound?
The value was 0%.

And the “Weight change (%) in 1st adsorption” value ([5]; Relative humidity 30% at 25°C)?
The value was 0%.

What about the “Weight change (%) in 1st desorption” value ([5]; Relative humidity 30% at 25°C) of the same compound?
Its value is 0%.

And the “Weight change (%) in 2nd adsorption” value ([5]; Relative humidity 30% at 25°C)?
Its value is 0%.

And the “Weight change (%) in 2nd desorption” value ([5]; Relative humidity 30% at 25°C)?
The value was 0%.

And the “Weight change (%) in 1st adsorption” value ([5]; Relative humidity 40% at 25°C)?
Its value is 0%.

And the “Weight change (%) in 1st desorption” value ([5]; Relative humidity 40% at 25°C)?
The value was 0%.

What about the “Weight change (%) in 2nd adsorption” value ([5]; Relative humidity 40% at 25°C) of the same compound?
The value was 0%.

What about the “Weight change (%) in 2nd desorption” value ([5]; Relative humidity 40% at 25°C) of the same compound?
The value was 0.1%.

And the “Weight change (%) in 1st adsorption” value ([5]; Relative humidity 50% at 25°C)?
Its value is 0.1%.

And the “Weight change (%) in 2nd desorption” value ([5]; Relative humidity 50% at 25°C)?
The value was 0.1%.

What about the “Weight change (%) in 1st adsorption” value ([5]; Relative humidity 60% at 25°C) of the same compound?
The value was 0.1%.

And the “Weight change (%) in 2nd desorption” value ([5]; Relative humidity 60% at 25°C)?
The value was 0.1%.

What about the “Weight change (%) in 1st adsorption” value ([5]; Relative humidity 70% at 25°C) of the same compound?
The value was 0.1%.

And the “Weight change (%) in 2nd desorption” value ([5]; Relative humidity 70% at 25°C)?
The value was 0.1%.

What about the “Weight change (%) in 1st adsorption” value ([5]; Relative humidity 80% at 25°C) of the same compound?
Its value is 0.1%.

What about the “Weight change (%) in 2nd desorption” value ([5]; Relative humidity 80% at 25°C) of the same compound?
Its value is 0.1%.

What about the “Weight change (%) in 1st adsorption” value ([5]; Relative humidity 90% at 25°C) of the same compound?
Its value is 0.1%.

What about the “Weight change (%) in 2nd desorption” value ([5]; Relative humidity 90% at 25°C) of the same compound?
Its value is 0.1%.

And the “Weight change (%) in 1st adsorption” value ([5]; Relative humidity 95% at 25°C)?
The value was 0.1%.

What about the “Weight change (%) in 2nd desorption” value ([5]; Relative humidity 95% at 25°C) of the same compound?
Its value is 0.1%.

And the “crystalline form after the DVS test (XRPD)” value ([5]; sample obtained after the DVS test)?
Its value is “still exhibits crystalline pattern C”.

What about the moisture uptake ([5]; up to 95% RH, 25°C) of the same compound?
Its moisture uptake is “less than 0.2%”.

What about the “Aβ plaques (percent area)” value [6] of the same compound?
Its value is “reduced Aβ plaques”.

And the “change in form and crystallinity on granulation with ethanol” value ([7]; wetted with ethanol)?
Its value is “no change in form, but its crystallinity decreased significantly”.

What about the “change in form and crystallinity on granulation with water” value ([7]; wetted with water) of the same compound?
Its value is “without any change in form or apparent decrease in crystallinity”.
